Measurements published in patent publication US5358955A, “Aryl and heteroarylmethoxyphenyl inhibitors of leukotriene biosynthesis” (Abbott Laboratories, priority 1993, dated 1994).

System: Stimulated LTB4 Formation in Human Polymorphonuclear Leukocytes
Experiment: Inhibition of calcium ionophore-stimulated LTB4 formation in human polymorphonuclear leukocytes (PMNL)
Assay type: cell-based
Conditions: for IC50: calcium ionophore 8.3 μM.3 μM, 15 min preincubation, 37° C, read-out: IC50, In Vitro Inhibitory Potencies Against Stimulated LTB4 Formation in Human Polymorphonuclear Leukocytes
Description: Inhibition of leukotriene biosynthesis was evaluated in an assay involving calcium ionophore-induced LTB4 expressed in human polymorphornuclear leukocytes (PMNL). Human PMNL isolated from heparinized (20 USP units/mL) venous blood (25 mL) obtained from healthy volunteers was layered over an equal volume of Ficoll-Hypaque Mono-Poly Resolving Medium (ICN Flow, Costa Mesa, CA) and centrifugated at 400 × g for 40 min at 20° C. The PMNL was collected, erythrocytes lysed and washed 2× and suspended at 1.0×10^7 cells/mL in Earle's balanced salt solution with 17 mM Earle's HEPES. Aliquots of the cell suspension were preincubated with test compounds dissolved in DMSO (final concentration <2%) for 15 min. and stimulated with calcium ionophore (final concentration 8.3 μM) for 10 min. at 37° C. Incubations were stopped with the addition of two volumes of ice-cold methanol followed by centrifuging the cell suspensions at 4° C. for 10 min at 450×g. The amount of LTB4 in the methanol extract was analyzed by enzyme-linked linked immunoassay or by HPLC analysis.

Compound | IC50 [nM] | % Inhibition, Stimulated LTB4 Formation in Human Polymorphonuclear Leukocytes (at ~0.095 μmol, calcium ionophore 8.3 μM) [%]
CN(O)C(=O)C=NOC(CCCc1ccc(Cl)cc1)c1ccc(OCc2ccc3ccccc3n2)cc1 (stereo not drawn) [Example 6, {[4-(4-Chlorophenyl)-1-(4-[2-quinolinylmethoxy]phenyl)butyl]iminoxy}acetic acid N-hydroxy-N-methyl-amide] | 132 | 
CN(O)C(=O)C(CC1CCCCC1)c1ccc(OCc2ccc3ccccc3n2)cc1 (stereo not drawn) [Example 3, 3-Cyclohexyl-2-[4-(quinolin-2-yl-methoxy)phenyl]propionic acid (N-hydroxy-N-methyl)amide] | 64 | 
CN(O)C(=O)CSC(CCCc1ccc(Cl)cc1)c1ccc(OCc2ccc3ccccc3n2)cc1 (stereo not drawn) [Example 1, {[4-(4-Chlorophenyl)-1-(4-[2-quinolinylmethoxy]phenyl)butyl]thio}acetic acid (N-hydroxy-N-methyl)amide] |  | 63
CN(O)C(=O)CON=C(CCCc1ccc(Cl)cc1)c1ccc(OCc2ccc3ccccc3n2)cc1 [Example 2, [(4-(4-Chlorophenyl)-1-(4-(2-quinolinylmethoxy)phenyl)butyl)oximino]acetic acid (N-hydroxy-N-methyl)amide] | 66 | 
CN(O)C(=O)C(c1ccc(OCc2ccc3ccccc3n2)cc1)C1CCCCC1 (stereo not drawn) [Example 8, 2-Cyclohexyl-2-[4-(quinolin-2-yl-methoxy)phenyl]acetic acid N-hydroxy-N-methyl-amide] | 33 | 

The next lines start with results.

IC50 [nM] | Compound | % Inhibition, Stimulated LTB4 Formation in Human Polymorphonuclear Leukocytes (at ~0.095 μmol, calcium ionophore 8.3 μM) [%]
68 | CNOC(=O)C(CC1CCCCC1)c1ccc(OCc2ccc3ccccc3n2)cc1 (stereo not drawn) [Example 13, N-Methyl-O-{3-cyclohexyl-2-[4-(quinolin-2-yl-methoxy)phenyl]-propionyl}-hydroxylamine] | 
95 | CNOC(=O)C(c1ccc(OCc2ccc3ccccc3n2)cc1)C1CCCCC1 (stereo not drawn) [Example 15, N-Methyl-O-{2-cyclohexyl-2-[4-(quinolin-2-yl-methoxy)phenyl]-acetyl}-hydroxylamine] | 
45 | CN(C)OC(=O)C(CC1CCCCC1)c1ccc(OCc2ccc3ccccc3n2)cc1 (stereo not drawn) [Example 17] | 
1650 | CNOC(=O)C(CC1CCCCC1)c1ccc(OCc2ccccn2)cc1 (stereo not drawn) [Example 14, N-Methyl-O-{3-cyclohexyl-2-[4-(pyrid-2-yl-methoxy)phenyl]propionyl}-hydroxylamine] | 
